From publication PMC6384781, “Design, Synthesis, Docking Studies and Monoamine Oxidase Inhibition of a Small Library of 1-acetyl- and 1-thiocarbamoyl-3,5-diphenyl-4,5-dihydro-(1H)-pyrazoles” (Molecules, 2019)

How the values were obtained:
[1] = target: T1, hMAO-B (Homo sapiens, UniProt P27338); assay: hMAO-B inhibition, Amplex Red fluorometric assay with kynuramine substrate; type: biochemical; conditions: for SI (selectivity index for the hMAO-B isoform): ratio IC50(hMAO-A)/IC50(hMAO-B), SI > 1 = MAO-B selective; for IC50 / IC50 hMAO-B: recombinant hMAO-B, kynuramine 50 µM, mean ± SD of triplicate, max tested 100 µM
T1 construct: purchased Sigma-Aldrich; host or cells: insect cells (microsomes)
T1 sequence (P27338 1-520): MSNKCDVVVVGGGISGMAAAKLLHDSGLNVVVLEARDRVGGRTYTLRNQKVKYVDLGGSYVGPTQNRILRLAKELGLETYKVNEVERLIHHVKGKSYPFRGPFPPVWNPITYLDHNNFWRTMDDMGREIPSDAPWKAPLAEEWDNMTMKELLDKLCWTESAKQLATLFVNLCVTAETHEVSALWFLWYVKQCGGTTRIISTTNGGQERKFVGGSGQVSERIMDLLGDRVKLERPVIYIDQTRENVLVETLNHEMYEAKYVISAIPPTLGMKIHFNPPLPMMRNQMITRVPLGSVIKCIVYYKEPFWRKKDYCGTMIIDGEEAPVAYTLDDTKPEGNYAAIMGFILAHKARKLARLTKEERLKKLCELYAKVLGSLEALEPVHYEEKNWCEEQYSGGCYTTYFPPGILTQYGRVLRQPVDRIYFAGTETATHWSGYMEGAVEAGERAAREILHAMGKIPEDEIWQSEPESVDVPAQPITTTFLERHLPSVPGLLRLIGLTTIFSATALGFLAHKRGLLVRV
Description: (§1) The synthesized compounds P1–P18 were evaluated as hMAO inhibitors using the recombinant hMAOs as enzyme sources and kynuramine as substrate. A fluorometric method based on the Amplex® Red reagent (λex = 560 nm; λem = 590 nm) was used to measure hMAO activity. In this horseradish peroxidase-linked assay, Amplex® Red reacts with hydrogen peroxide that is produced by the MAO catalytic cycle to yield a fluorescent product, resorufin [28]. By thus recording the MAO-catalyzed formation of hydrogen peroxide in the presence of different concentrations of a test inhibitor, sigmoidal plots of enzyme activity versus the logarithm of inhibitor concentration were constructed from which IC50 values were estimated (GraphPad Prism 5). All IC50 values were measured in triplicate and are expressed as the mean ± standard deviation (SD). The inhibitory activities of compounds P1–P18 are summarized in Table 1 along with selectivity index (SI) values which are the ratio of IC50(hMAO-A)/IC50(hMAO-B). SI < 1 indicates selectivity for MAO-A, whereas SI > 1 indicates selectivity for the MAO-B isoform.
(§2) Microsomes from insect cells expressing recombinant hMAO-A or hMAO-B (5 mg protein/mL) served as enzyme sources, and were pre-aliquoted and stored at −70 °C. All enzymatic reactions were carried out to a final volume of 200 µL in black 96-well microtiter plates (Corning). Potassium phosphate buffer (100 mM, pH 7.4, made isotonic with KCl) served as reaction solvent. The reactions contained kynuramine (50 µM), various concentrations of the test inhibitor (0.003–100 μM), horseradish peroxidase (1 unit/mL) and Amplex® Red (200 µM). Stock solutions of the test inhibitors were prepared in DMSO and added to the reactions to yield a final concentration of 4% (v/v) DMSO. The reactions were initiated with the addition of hMAO-A (0.0075 mg protein/mL) or hMAO-B (0.015 mg protein/mL), and incubated at 37 °C for 20 min in a convection oven. At endpoint, the reactions were terminated with the addition of 10 μL pargyline (20 mM) and 10 μL (R)-deprenyl (5 mM) for hMAO-A and hMAO-B, respectively. The concentrations of resorufin in the reactions were determined by fluorescence spectrophotometry (λex = 560 nm, λem = 590 nm). Resorufin was quantitated with a linear calibration curve, which was constructed from standard solutions containing hydrogen peroxide (0.05–1.6 µM). Each standard was prepared to a final volume of 200 μL in potassium phosphate buffer and also contained horseradish peroxidase (1 unit/mL), Amplex® Red (200 µM), 4% DMSO as co-solvent, 10 μL pargyline (20 mM) for hMAO-A and 10 μL (R)-deprenyl (5 mM) for hMAO-B. The IC50 values were determined by constructing sigmoidal curves of MAO catalytic activity versus the logarithm of inhibitor concentration. For this purpose, the one site competition model incorporated into the Prism 5 software package (GraphPad, San Diego, CA, USA) was used. All experiments were carried out in triplicate and the IC50 values are expressed as mean ± standard deviation (SD).

[2] = target: T2, hMAO-A (Homo sapiens, UniProt P21397); assay: hMAO-A inhibition, Amplex Red fluorometric assay with kynuramine substrate; type: biochemical; conditions: for IC50 / IC50 hMAO-A: recombinant hMAO-A, kynuramine 50 µM, mean ± SD of triplicate, max tested 100 µM; for fold difference of hMAO-A inhibition, (R)-enantiomer versus (S)-enantiomer: (R)- compared with (S)-enantiomer of the same compound
T2 construct: purchased Sigma-Aldrich; host or cells: insect cells (microsomes)
T2 sequence (P21397 1-527): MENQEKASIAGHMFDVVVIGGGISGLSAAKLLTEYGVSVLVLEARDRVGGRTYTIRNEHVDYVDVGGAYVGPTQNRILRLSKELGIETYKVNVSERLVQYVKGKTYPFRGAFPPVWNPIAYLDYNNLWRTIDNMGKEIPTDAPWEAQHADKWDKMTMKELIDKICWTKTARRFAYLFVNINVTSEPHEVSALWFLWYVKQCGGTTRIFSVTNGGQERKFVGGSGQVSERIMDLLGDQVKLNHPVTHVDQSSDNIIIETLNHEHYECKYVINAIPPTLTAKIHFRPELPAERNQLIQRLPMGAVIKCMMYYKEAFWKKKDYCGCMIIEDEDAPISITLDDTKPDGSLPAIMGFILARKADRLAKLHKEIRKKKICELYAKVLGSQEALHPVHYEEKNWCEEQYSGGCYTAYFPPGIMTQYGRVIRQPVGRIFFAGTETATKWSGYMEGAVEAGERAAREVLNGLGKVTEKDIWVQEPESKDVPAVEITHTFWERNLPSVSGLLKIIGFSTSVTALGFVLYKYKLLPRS
Description: as §1, §2

Row | SMILES | SI (selectivity index for the hMAO-B isoform) [1] | IC50 [1] [µM] | fold higher inhibitory activity for hMAO-A than for hMAO-B ([2]; hMAO-A versus hMAO-B) [fold] | IC50 [2] [µM] | melting point [°C] | IC50 hMAO-B [1] | IC50 hMAO-A [2] | fold higher hMAO-B inhibitory activity, (R)-enantiomer versus (S)-enantiomer ([1]; (R)- compared with (S)-enantiomer of the same compound) [fold] | fold difference of hMAO-A inhibition, (R)-enantiomer versus (S)-enantiomer [2] [fold]
1 | CCCOc1ccc(C2=NN(C(N)=S)[C@@H](c3ccccc3)C2)cc1 [(R)-P3] | 2.89 | 2.77 ± 0.39 |  | 8 ± 0.83 |  |  |  |  | 
2 | CCCOc1ccc(C2=NN(C(N)=S)[C@H](c3ccccc3)C2)cc1 [(S)-P3] | 0.23 | 42.5 ± 2.61 |  | 9.59 ± 0.83 |  |  |  |  | 
3 | CCCCCOc1ccc(C2=NN(C(N)=S)[C@@H](c3ccccc3)C2)cc1 [(R)-P5] | 6.89 | 0.44 ± 0.028 |  | 3.03 ± 0.6 |  |  |  | 6 | 18
4 | CCOc1ccc(C2=NN(C(N)=S)[C@H](c3ccccc3)C2)cc1 [(S)-P2] | <0.32 | > 100 |  | 32.3 ± 4.46 |  |  |  |  | 
5 | COc1ccc(C2=NN(C(N)=S)[C@H](c3ccccc3)C2)cc1 [(S)-P1] | <0.47 | > 100 |  | 46.6 ± 2.62 |  |  |  |  | 
6 | CCCCOc1ccc(C2=NN(C(N)=S)[C@@H](c3ccccc3)C2)cc1 [(R)-P4] | 9.55 | 0.38 ± 0.06 |  | 3.63 ± 0.5 |  |  |  |  | 10
7 | CCOc1ccc(C2=NN(C(N)=S)[C@@H](c3ccccc3)C2)cc1 [(R)-P2] | <0.34 | > 100 |  | 33.9 ± 1.29 |  |  |  |  | 
8 | COc1ccc(C2=NN(C(N)=S)[C@@H](c3ccccc3)C2)cc1 [(R)-P1] | <0.51 | > 100 |  | 50.6 ± 2.67 |  |  |  |  | 
9 | CCCCCOc1ccc(C2=NN(C(N)=S)[C@H](c3ccccc3)C2)cc1 [(S)-P5] | 19.77 | 2.79 ± 0.87 |  | 55.2 ± 2.72 |  |  |  |  | 
10 | CCCCOc1ccc(C2=NN(C(N)=S)[C@H](c3ccccc3)C2)cc1 [(S)-P4] | 7.78 | 5.03 ± 0.88 |  | 39.2 ± 2.15 |  |  |  |  | 

The remaining lines, values ahead:

Row | SI (selectivity index for the hMAO-B isoform) [1] | IC50 [1] [µM] | fold higher inhibitory activity for hMAO-A than for hMAO-B ([2]; hMAO-A versus hMAO-B) [fold] | IC50 [2] [µM] | melting point [°C] | IC50 hMAO-B [1] | IC50 hMAO-A [2] | fold higher hMAO-B inhibitory activity, (R)-enantiomer versus (S)-enantiomer ([1]; (R)- compared with (S)-enantiomer of the same compound) [fold] | fold difference of hMAO-A inhibition, (R)-enantiomer versus (S)-enantiomer [2] [fold] | SMILES
11 | 0.33 | 27.3 ± 0.57 | 3 | 9.13 ± 0.34 | 110 to 112 |  |  |  |  | CC(=O)N1N=C(c2ccc(OCC=C(C)C)cc2)CC1c1ccccc1C (stereo not shown) [Compound P9, 1-(3-(4-((3-methylbut-2-en-1-yl)oxy)phenyl)-5-(o-tolyl)-4,5-dihydro-1H-pyrazol-1-yl)ethan-1-one]
12 | 2.72 | 14.5 ± 2.78 |  | 39.3 ± 5.94 | 95 to 98 |  |  |  |  | C=CCOc1ccc(C2=NN(C(C)=O)C(c3ccccc3)C2)cc1 (stereo not shown) [Compound P7, 1-(3-(4-(allyloxy)phenyl)-5-phenyl-4,5-dihydro-1H-pyrazol-1-yl)ethan-1-one]
13 |  | > 100 |  | > 100 | 78 to 80 | devoid of inhibition activity | devoid of inhibition activity |  |  | CC(=O)N1N=C(c2ccc(OCC=C(C)C)cc2)CC1c1cccc2ccccc12 (stereo not shown) [Compound P18, 1-(3-(4-((3-methylbut-2-en-1-yl)oxy)phenyl)-5-(naphthalen-1-yl)-4,5-dihydro-1H-pyrazol-1-yl)ethan-1-one]
14 | 26.96 | 3.22 ± 0.48 |  | 86.8 ± 14.7 | 120 to 122 |  |  |  |  | CC(=O)N1N=C(c2ccc(OCC=C(C)C)cc2)CC1c1cccc(C)c1 (stereo not shown) [Compound P10, 1-(3-(4-((3-methylbut-2-en-1-yl)oxy)phenyl)-5-(m-tolyl)-4,5-dihydro-1H-pyrazol-1-yl)ethan-1-one]
15 | >1.85 | 54.1 ± 7.54 |  | > 100 |  |  | ineffective |  |  | CC(C)=CCCC(C)=CCOc1ccc(C2=NN(C(N)=S)C(c3ccccc3)C2)cc1 (stereo not shown) [Compound P6, 3-(4-((3,7-dimethylocta-2,6-dien-1-yl)oxy)phenyl)-5-phenyl-4,5-dihydro-1H-pyrazole-1-carbothioamide]
16 | <0.81 | > 100 |  | 80.6 ± 10 | 117 to 119 |  |  |  |  | CC(=O)N1N=C(c2ccc(OCC=C(C)C)cc2)CC1c1ccc(C)cc1C (stereo not shown) [Compound P12, 1-(5-(2,4-dimethylphenyl)-3-(4-((3-methylbut-2-en-1-yl)oxy)phenyl)-4,5-dihydro-1H-pyrazol-1-yl)ethan-1-one]
17 | 1.85 | 3.11 ± 0.66 |  | 5.74 ± 1.66 | 131 to 134 |  |  |  |  | CC(=O)N1N=C(c2ccc(OCC=C(C)C)cc2)CC1c1ccccc1Cl (stereo not shown) [Compound P13, 1-(5-(2-chlorophenyl)-3-(4-((3-methylbut-2-en-1-yl)oxy)phenyl)-4,5-dihydro-1H-pyrazol-1-yl)ethan-1-one]
18 |  | > 100 |  | > 100 | 132 to 135 | devoid of inhibition activity | devoid of inhibition activity |  |  | CC(=O)N1N=C(c2ccc(OCC=C(C)C)cc2)CC1c1ccc(-c2ccccc2)cc1 (stereo not shown) [Compound P17]
19 | >8.19 | 12.2 ± 0.71 |  | > 100 |  |  |  |  |  | CC(=O)N1N=C(c2ccc(OCC=C(C)C)cc2)CC1c1ccc(C)cc1 (stereo not shown) [Compound P11, 1-(3-(4-((3-methylbut-2-en-1-yl)oxy)phenyl)-5-(p-tolyl)-4,5-dihydro-1H-pyrazol-1-yl)ethan-1-one]
20 | 1.11 | 11 ± 3.56 |  | 12.1 ± 0.14 |  |  |  |  |  | CC(=O)N1N=C(c2ccc(OCC=C(C)C)cc2)CC1c1ccc(Cl)cc1 (stereo not shown) [Compound P15, 1-(5-(4-chlorophenyl)-3-(4-((3-methylbut-2-en-1-yl)oxy)phenyl)-4,5-dihydro-1H-pyrazol-1-yl)ethan-1-one]
21 |  | > 100 |  | > 100 | 128 to 130 | did not inhibit | did not inhibit |  |  | CC(=O)N1N=C(c2ccc(OCC=C(C)C)cc2)CC1c1ccc(Cl)cc1Cl (stereo not shown) [Compound P16, 1-(5-(2,4-dichlorophenyl)-3-(4-((3-methylbut-2-en-1-yl)oxy)phenyl)-4,5-dihydro-1H-pyrazol-1-yl)ethan-1-one]
22 | >43.67 | 2.29 ± 0.42 |  | > 100 |  |  |  |  |  | CC(=O)N1N=C(c2ccc(OCC=C(C)C)cc2)CC1c1ccccc1 (stereo not shown) [Compound P8]
